US9216999B2, “Substituted pyrrolo[2,3-h][1,6]naphthyridines and compositions thereof as JAK inhibitors” (priority 2011, dated 2015)
Like-named read-outs stand apart in the source and are kept apart here.

How the values were obtained:
Assay type in all cases: biochemical
JAK2 = JAK2 (Homo sapiens (Human), UniProt O60674); assay: Enzyme assay (Assay Example^a 1), JAK2
JAK1 = JAK1 (Homo sapiens (Human), UniProt P23458); assay: Enzyme assay (Assay Example^a 1), JAK1; conditions: ATP 100 μM
JAK3 = JAK3 (Homo sapiens (Human), UniProt P52333); assay: Enzyme assay (Assay Example^a 1), JAK3
Tyk2 = Tyk2 (Homo sapiens (Human), UniProt P29597); assay: Enzyme assay (Assay Example^a 1), Tyk2; conditions: ATP 100 μM
Sequence of Tyk2 (P29597 whole entry): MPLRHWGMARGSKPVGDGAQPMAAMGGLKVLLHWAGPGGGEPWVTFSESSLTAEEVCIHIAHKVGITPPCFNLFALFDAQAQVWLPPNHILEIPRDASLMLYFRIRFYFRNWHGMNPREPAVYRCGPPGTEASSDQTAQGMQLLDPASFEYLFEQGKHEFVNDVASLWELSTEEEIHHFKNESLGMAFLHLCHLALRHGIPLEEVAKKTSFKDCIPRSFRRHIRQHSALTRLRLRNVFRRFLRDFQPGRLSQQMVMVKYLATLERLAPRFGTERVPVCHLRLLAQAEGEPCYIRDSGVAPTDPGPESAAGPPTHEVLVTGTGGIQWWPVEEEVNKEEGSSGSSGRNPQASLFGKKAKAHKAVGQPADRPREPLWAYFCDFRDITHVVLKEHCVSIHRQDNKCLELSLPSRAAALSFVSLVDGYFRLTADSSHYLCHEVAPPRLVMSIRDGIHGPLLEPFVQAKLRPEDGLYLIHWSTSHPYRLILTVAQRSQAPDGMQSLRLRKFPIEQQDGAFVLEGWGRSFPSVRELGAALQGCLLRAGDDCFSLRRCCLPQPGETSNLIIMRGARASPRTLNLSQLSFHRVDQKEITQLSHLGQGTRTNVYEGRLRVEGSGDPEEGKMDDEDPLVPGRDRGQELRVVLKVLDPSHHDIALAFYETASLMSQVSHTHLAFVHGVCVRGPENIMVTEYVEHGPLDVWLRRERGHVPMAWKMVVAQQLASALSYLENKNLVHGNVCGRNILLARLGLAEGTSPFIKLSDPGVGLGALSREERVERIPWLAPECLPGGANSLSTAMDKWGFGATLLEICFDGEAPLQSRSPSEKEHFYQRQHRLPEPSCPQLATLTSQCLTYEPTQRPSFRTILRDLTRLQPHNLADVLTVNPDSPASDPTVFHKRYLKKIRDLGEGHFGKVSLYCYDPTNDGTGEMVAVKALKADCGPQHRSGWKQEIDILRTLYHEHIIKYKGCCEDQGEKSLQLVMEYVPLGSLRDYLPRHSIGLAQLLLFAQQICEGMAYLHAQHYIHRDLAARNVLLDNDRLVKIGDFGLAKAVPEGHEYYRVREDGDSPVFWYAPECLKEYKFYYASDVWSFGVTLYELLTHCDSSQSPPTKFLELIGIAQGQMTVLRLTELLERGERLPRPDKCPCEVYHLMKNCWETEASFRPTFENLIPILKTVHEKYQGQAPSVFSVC

Sequence of JAK3 (P52333 whole entry): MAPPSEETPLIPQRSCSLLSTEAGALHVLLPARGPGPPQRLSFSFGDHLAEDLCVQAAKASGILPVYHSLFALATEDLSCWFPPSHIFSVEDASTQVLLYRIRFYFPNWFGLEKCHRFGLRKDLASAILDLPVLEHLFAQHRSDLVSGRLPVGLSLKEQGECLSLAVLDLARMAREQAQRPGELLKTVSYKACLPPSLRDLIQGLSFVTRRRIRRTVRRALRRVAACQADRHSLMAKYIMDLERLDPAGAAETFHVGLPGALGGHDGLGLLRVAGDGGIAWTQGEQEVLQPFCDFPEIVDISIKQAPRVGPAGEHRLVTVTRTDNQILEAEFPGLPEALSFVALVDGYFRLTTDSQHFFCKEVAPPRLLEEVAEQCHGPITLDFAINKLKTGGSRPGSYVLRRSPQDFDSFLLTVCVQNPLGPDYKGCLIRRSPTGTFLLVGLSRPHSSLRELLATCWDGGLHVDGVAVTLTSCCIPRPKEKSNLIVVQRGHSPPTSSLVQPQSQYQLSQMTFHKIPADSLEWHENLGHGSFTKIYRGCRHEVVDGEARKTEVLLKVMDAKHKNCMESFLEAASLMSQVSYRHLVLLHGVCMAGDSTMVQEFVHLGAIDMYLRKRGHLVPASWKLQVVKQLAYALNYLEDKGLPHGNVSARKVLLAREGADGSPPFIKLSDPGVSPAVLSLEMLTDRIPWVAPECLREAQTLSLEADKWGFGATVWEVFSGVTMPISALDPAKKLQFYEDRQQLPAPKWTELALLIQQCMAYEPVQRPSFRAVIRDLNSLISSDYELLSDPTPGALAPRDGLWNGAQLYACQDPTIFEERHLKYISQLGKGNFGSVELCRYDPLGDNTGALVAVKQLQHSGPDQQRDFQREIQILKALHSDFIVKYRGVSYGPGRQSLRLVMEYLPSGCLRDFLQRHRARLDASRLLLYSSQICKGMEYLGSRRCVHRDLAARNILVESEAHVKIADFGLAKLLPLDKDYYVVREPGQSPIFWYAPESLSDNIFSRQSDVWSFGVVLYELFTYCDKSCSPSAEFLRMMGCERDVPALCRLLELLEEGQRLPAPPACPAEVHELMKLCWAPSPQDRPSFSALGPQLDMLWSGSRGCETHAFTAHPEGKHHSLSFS

IC50 (JAK2; ATP 100 μM) [µM]	IC50 (JAK1) [µM]	IC50 (JAK3; ATP 100 μM) [µM]	IC50 (Tyk2) [µM]	SMILES	IC50 (JAK2; ATP 100 μM, Table^a 154) [µM]	IC50 (JAK1; Table^a 154) [µM]	IC50 (Tyk2; Table^a 154) [µM]	other results
0.2	0.01	> 1	0.53	OCCN1CCN(C[C@H]2CC[C@H](c3nnn4cnc5[nH]ccc5c34)CC2)CC1 [compound 315, 2-(4-{[trans-4-(7H-pyrrolo[3,2-e][1,2,3]triazolo[1,5-c]pyrimidin-1-yl)cyclohexyl]methyl}piperazin-1-yl)ethanol]				
0.062	0.015	0.99	0.27	FC(F)(F)CCNC[C@H]1CC[C@H](c2nnn3cnc4[nH]ccc4c23)CC1 [compound 256, N-{[trans-4-(7H-pyrrolo[3,2-e][1,2,3]triazolo[1,5-c]pyrimidin-1-yl)cyclohexyl]methyl}-3,3,3-trifluoropropan-1-amine]				
0.031	0.0029	0.35	0.46	O=C(NC[C@@H](O)c1ccccc1)[C@H]1CC[C@H](c2nnn3cnc4[nH]ccc4c23)CC1 [compound 353, trans-N-[(S)-2-hydroxy-2-phenylethyl]-4-(7H-pyrrolo[3,2-e][1,2,3]triazolo[1,5-c]pyrimidin-1-yl)cyclohexanecarboxamide]				
				FC(F)(F)C1CCC(N2CCC(c3nnn4cnc5[nH]ccc5c34)CC2)CC1 (single isomer, unassigned) [56a]	> 1	0.5	> 1	IC50 (JAK3; ATP 100 μM, Table^a 154): > 1 µM
0.19	0.022	> 1	0.71	c1cc2c(ncn3nnc([C@H]4CC[C@H](NCC5CC5)CC4)c23)[nH]1 [396b, trans-N-(cyclopropylmethyl)-4-(7H-pyrrolo[3,2-e][1,2,3]triazolo[1,5-c]pyrimidin-1-yl)cyclohexanamine]				
0.12	0.022	0.48	0.34	c1cc2c(ncn3nnc([C@H]4CC[C@H](CNC5COC5)CC4)c23)[nH]1 [compound 294, N-{[trans-4-(7H-pyrrolo[3,2-e][1,2,3]triazolo[1,5-c]pyrimidin-1-yl)cyclohexyl]methyl}oxetan-3-amine]				
0.01	0.0022	0.61	0.15	FC(F)(F)CN[C@H]1CC[C@H](c2nnn3cnc4[nH]ccc4c23)CC1 [395b, trans-4-(7H-pyrrolo[3,2-e][1,2,3]triazolo[1,5-c]pyrimidin-1-yl)-N-(2,2,2-trifluoroethyl)cyclohexanamine]				
				Clc1ccc(NC2CCC(c3nnn4cnc5[nH]ccc5c34)CC2)cc1 (stereo not drawn) [compound 205, N-[4-(7H-Pyrrolo[3,2-e]r[1,2,3]triazolo[1,5-c]pyrimidin-1-yl)cyclohexyl]-4-chloroaniline]	0.25	0.026	0.75	IC50 (JAK3; ATP 100 μM, Table^a 154): > 1 µM
				O=C(N[C@H]1CC[C@H](c2nnn3cnc4[nH]ccc4c23)CC1)OCc1ccccc1 [compound 60]		0.0051	4.2	IC50 (JAK2): 0.032 µM; IC50 (JAK3; ATP 100 μM, Table^a 154): > 1 µM
				N#CCCN(CCC#N)C[C@H]1CC[C@H](c2nnn3cnc4[nH]ccc4c23)CC1 [compound 180, 3,3′-({[trans-4-(7H-pyrrolo[3,2-e][1,2,3]triazolo[1,5-c]pyrimidin-1-yl)cyclohexyl]methyl}azanediyl)dipropanenitrile]	0.0019	0.0013	0.022	IC50 (JAK3; ATP 100 μM, Table^a 154): 0.03 µM
0.06	0.0051	> 1	> 1	O=C(NCC(O)(c1ccccc1)C(F)(F)F)[C@H]1CC[C@H](c2nnn3cnc4[nH]ccc4c23)CC1 (stereo partly drawn) [compound 346, trans-4-(7H-Pyrrolo[3,2-e][1,2,3]triazolo[1,5-c]pyrimidin-1-yl)-N-(3,3,3-trifluoro-2-hydroxy-2-phenylpropyl)cyclohexanecarboxamide]				
0.0061	0.0035	0.069	0.27	N#CCNS(=O)(=O)C[C@H]1CC[C@H](c2nnn3cnc4[nH]ccc4c23)CC1 [compound 419, 1-[trans-4-(7H-pyrrolo[3,2-e][1,2,3]triazolo[1,5-c]pyrimidin-1-yl)cyclohexyl]-N-(cyanomethyl)methanesulfonamide]				
				N#C[C@H]1CCN(C[C@H]2CC[C@H](c3nnn4cnc5[nH]ccc5c34)CC2)C1 [compound 187, (S)-1-{[trans-4-(7H-pyrrolo[3,2-e][1,2,3]triazolo[1,5-c]pyrimidin-1-yl)cyclohexyl]methyl}pyrrolidine-3-carbonitrile]	0.038	0.0076	0.36	IC50 (JAK3; ATP 100 μM, Table^a 154): 0.37 µM
				c1cc2c(ncn3nnc([C@H]4CC[C@H](NN5CCOCC5)CC4)c23)[nH]1 [139b]	0.076	0.021	0.5	IC50 (JAK3; ATP 100 μM, Table^a 154): > 1 µM
				FC(F)(F)Oc1ccc(CNC[C@H]2CC[C@H](c3nnn4cnc5[nH]ccc5c34)CC2)cc1 [compound 110]	0.091	0.0056		
				FC1(F)CCC(c2nnn3cnc4[nH]ccc4c23)CC1 [compound 64]	0.12	0.033	0.31	
				OC(CNC[C@H]1CC[C@H](c2nnn3cnc4[nH]ccc4c23)CC1)(c1ccccc1)C(F)(F)F (mixture of isomers) [compound 172, 3-({[trans-4-(7H-pyrrolo[3,2-e][1,2,3]triazolo[1,5-c]pyrimidin-1-yl)cyclohexyl]methyl}amino)-1,1,1-trifluoro-2-phenylpropan-2-ol]	0.093	0.013	0.63	
				OC(CN[C@H]1CC[C@H](c2nnn3cnc4[nH]ccc4c23)CC1)(c1ccc(Cl)cc1)C(F)(F)F (mixture of isomers) [199b, 3-((trans-4-(7H-pyrrolo[3,2-e][1,2,3]triazolo[1,5-c]pyrimidin-1-yl)cyclohexyl)amino)-2-(4-chlorophenyl)-1,1,1-trifluoropropan-2-ol]	0.035	0.0035	0.44	
				N#Cc1ccc(NC[C@H]2CC[C@H](c3nnn4cnc5[nH]ccc5c34)CC2)cc1C(F)(F)F [compound 105]	0.19		0.37	IC50 (JAK3; ATP 100 μM, Table^a 154): > 1 µM
				c1cc2c(ncn3nnc(C4CCCCCC4)c23)[nH]1 [compound 66]	0.013	0.0033	0.027	
				O=C(OCc1ccccc1)N1CCCC(c2nnn3cnc4[nH]ccc4c23)C1 (racemic) [compound 14]	0.11	0.021	2.2	
				OC(CN[C@H]1CC[C@H](c2nnn3cnc4[nH]ccc4c23)CC1)(c1ccc(F)cc1)C(F)(F)F (mixture of isomers) [200b, 3-{[trans-4-(7H-pyrrolo[3,2-e][1,2,3]triazolo[1,5-c]pyrimidin-1-yl)cyclohexyl]amino}-1,1,1-trifluoro-2-(4-fluorophenyl)propan-2-ol]	0.032	0.0025	0.24	
				OC(CN[C@H]1CC[C@@H](c2nnn3cnc4[nH]ccc4c23)CC1)(c1ccccc1)C(F)(F)F (mixture of isomers) [196a, 3-{[cis-4-(7H-pyrrolo[3,2-e][1,2,3]triazolo[1,5-c]pyrimidin-1-yl)cyclohexyl]amino}-1,1,1-trifluoro-2-phenylpropan-2-ol]	0.75	0.06		
				FC(F)(F)c1cc(CN2CCC(c3nnn4cnc5[nH]ccc5c34)CC2)ccc1Cl [compound 155]	0.032	0.011		
0.034		0.83	0.78	Fc1ccc(C2(NC[C@H]3CC[C@H](c4nnn5cnc6[nH]ccc6c45)CC3)CC2)cc1 [compound 323, N-{[trans-4-(7H-pyrrolo[3,2-e][1,2,3]triazolo[1,5-c]pyrimidin-1-yl)cyclohexyl]methyl}-1-(4-fluorophenyl)cyclopropanamine]				
				OC(CN[C@H]1CC[C@H](c2nnn3cnc4[nH]ccc4c23)CC1)(c1ccccc1)C(F)(F)F (mixture of isomers) [196b, 3-{[trans-4-(7H-pyrrolo[3,2-e][1,2,3]triazolo[1,5-c]pyrimidin-1-yl)cyclohexyl]amino}-1,1,1-trifluoro-2-phenylpropan-2-ol]	0.036	0.0032		

SMILES	IC50 (JAK2; ATP 100 μM) [µM]	IC50 (JAK1) [µM]	IC50 (JAK3; ATP 100 μM) [µM]	IC50 (Tyk2) [µM]	IC50 (JAK2; ATP 100 μM, Table^a 154) [µM]	IC50 (JAK1; Table^a 154) [µM]	IC50 (Tyk2; Table^a 154) [µM]	other results
CC(C#N)=C1CCC(c2nnn3cnc4[nH]ccc4c23)CC1 (stereo not drawn) [compound 437, 2-[4-(7H-pyrrolo[3,2-e][1,2,3]triazolo[1,5-c]pyrimidin-1-yl)cyclohexylidene]propanenitrile]	0.055	0.02	0.57	0.45				
CC(=O)N[C@@H]1CCN(C[C@H]2CC[C@H](c3nnn4cnc5[nH]ccc5c34)CC2)C1 [compound 318, N-((R)-1-{[trans-4-(7H-pyrrolo[3,2-e][1,2,3]triazolo[1,5-c]pyrimidin-1-yl)cyclohexyl]methyl}pyrrolidin-3-yl)acetamide]	0.057	0.0048	> 1	0.61				
CC(C)(C)OC(=O)N[C@H]1CCN(C[C@H]2CC[C@H](c3nnn4cnc5[nH]ccc5c34)CC2)C1 [compound 307, tert-butyl ((S)-1-{[trans-4-(7H-pyrrolo[3,2-e][1,2,3]triazolo[1,5-c]pyrimidin-1-yl)cyclohexyl]methyl}pyrrolidin-3-yl)carbamate]	0.26	0.0066	> 1	> 1				
O=c1[nH]c(C2CCCCC2)c2c3cc[nH]c3ncn12 [compound 9]	0.046	0.03		0.078				IC50 (JAK3): 0.43 µM
c1cc2c(ncn3cnc(C4CCCCC4)c23)[nH]1 [compound 2]	0.017	0.014						
N#Cc1ccc(NC[C@H]2CC[C@H](c3nnn4cnc5[nH]ccc5c34)CC2)cc1Cl [compound 247, 4-({[trans-4-(7H-pyrrolo[3,2-e][1,2,3]triazolo[1,5-c]pyrimidin-1-yl)cyclohexyl]methyl}amino)-2-chlorobenzonitrile]	0.09	0.013		> 1				
O=S(=O)(C[C@H]1CC[C@H](c2nnn3cnc4[nH]ccc4c23)CC1)c1ccccc1 [compound 364, 1-{trans-4-[(phenylsulfonyl)methyl]cyclohexyl}-7H-pyrrolo[3,2-e][1,2,3]triazolo[1,5-c]pyrimidine]	0.011	0.0057						
